In patent US12280032B2, “Methods and compositions for increasing the potency of antifungal agents” (Pacific Northwest Research Institute, priority 2014, dated 2025):

Key:
S. cerevisiae Strain F45 = test: Zones of growth inhibition on YPD plates containing 10 mM Enamine compound with 50 μg fluconazole disk; type: cell-based, Saccharomyces cerevisiae
Experimental: Zones of Growth Inhibition were Measured for the S. cerevisiae Strain F45 on YPD Plates Containing 10 mM of the Enamine Compound with a 50 μg Fluconazole Disk Applied.
Zones of growth inhibition were also measured for strain F45 in which F45 strains were spread on YPD plates that contained 10 mM of an Enamine compound which was poured into the plate, with a 50 μg fluconazole disk. Enamine is an unsaturated compound derived by the condensation of an aldehyde or ketone with a secondary amine Some enmities have structures that are similar to PE, as such, they were tested to measure their efficacy in increasing sensitivity to an antifungal.

S. cerevisiae (F45) = test: YPD plate assay with antifungal filter disk, with or without PE; type: cell-based, Saccharomyces cerevisiae; parameters: Degree of clearance: unit not given here
[1] = system: Aspergillus fumigatus (ATCC 13073); test: M.I.C. determination; type: cell-based; conditions: drug alone
[2] = system: Candida krusei (ATCC 6258); test: M.I.C. determination; type: cell-based; conditions: drug alone
[3] = system: Candida glabrata (ATCC 36583); test: M.I.C. determination; type: cell-based; conditions: drug alone
[4] = system: Cryptococcus neoformans (ATCC 24067); test: M.I.C. determination; type: cell-based; conditions: drug alone
the fungus = test: Effects of antifungals in the presence of PE (FIG. 4); type: cell-based; conditions: PE used in conjunction with the antifungal
BY4741 lab strain = test: YPD plate assay with nystatin disk, with or without PE; type: cell-based, Saccharomyces cerevisiae; conditions: FIG. 9 Panel B
Experimental: In each panel, the top plate is YPD alone with a disc that contains DMSO, the bottom left plate is YPD alone with a disc that contains 50 μg Nystatin and the bottom right plate is YPD plus 10 mM PE with a disc that contains 50 μg Nystatin. The plates in FIG. 9, panel A are spread with the F45 strain. The plates in FIG. 9, panel B are spread with the BY4741 lab strain.
In each panel, the top plate is YPD alone with a disc that contains DMSO, the bottom left plate is YPD alone with a disc that contains 50 μg Nystatin and the bottom right plate is YPD plus 10 mM PE with a disc that contains 50 μg Nystatin. The plates in panel are spread with the F45 strain (FIG. 9, panel A), The plates in FIG. 9, panel Bare spread with the BY4741 lab strain.

[5] = system: S. cerevisiae biofilm formation; test: Biofilm formation (colony morphology); type: cell-based, Saccharomyces cerevisiae; conditions: determined by colony morphology; previous experiments
Experimental: In each panel, the left plate is YPD alone and the right plate is YPD plus 10 mM PE (a concentration that inhibits the fluffy colony morphology). Each plate also contains a paper disk containing the DMSO vehicle (FIG. 1, panel A), 25 μg fluconazole (FIG. 1, panel B), 50 μg fluconazole (FIG. 1, panel C), or 100 μg fluconazole (FIG. 1, panel D).
However, previous experiments determined that biofilm formation was inhibited at PE concentrations of 10 mM or higher. Attention is drawn to FIG. 2, in which concentrations of PE that were too low to inhibit biofilm formation (determined by colony morphology) were also shown to increase the sensitivity of the yeast strain flo11D for the fluconazole which further support the hypothesis that the effect of PE on drug sensitivity is independent of its effect on biofilm formation. As such, there is a synergistic effect upon the combination of PE with fluconazole, in which the cells are more sensitive to fluconazole in the presence of PE at a higher concentration (10 mM PE). […] It is noted that even at lower concentrations of PE (<10 mM), in which the colonies are fluffy, indicating an intact cell wall or intact morphology, the PE at lower concentrations can still enhance killing by fluconazole. […] As such, even at a lower concentration, PE in combination with fluconazole has a synergistic effect on inhibiting the growth of the fungal strain.

[6] = system: C. albicans fluconazole resistant strain R357; test: YPD plate assay with antifungal filter disk, with or without PE; type: cell-based, Candida albicans; parameters: unit not given here; conditions: C. albicans strain 8357
[7] = system: Candida albicans (resistant=20186.025; 8357); test: M.I.C. determination; type: cell-based; conditions: drug alone
[8] = system: Candida tropicalis (ATCC 200956); test: M.I.C. determination; type: cell-based; conditions: drug alone
[9] = system: Candida albicans (sensitive=ATCC 90028); test: M.I.C. determination; type: cell-based; conditions: drug alone
[10] = system: Candida parapsilosis (ATCC 22019); test: M.I.C. determination; type: cell-based; conditions: drug alone
[11] = system: Candida albicans (resistant=20186.025; 8357); test: Checkerboard assay (FICI) of PE with triazole; type: cell-based; conditions: named triazole in combination with PE
[12] = system: Aspergillus fumigatus (ATCC 13073); test: Checkerboard assay (FICI) of PE with triazole; type: cell-based; conditions: named triazole in combination with PE
[13] = system: Candida tropicalis (ATCC 200956); test: Checkerboard assay (FICI) of PE with triazole; type: cell-based; conditions: named triazole in combination with PE
[14] = system: Candida krusei (ATCC 6258); test: Checkerboard assay (FICI) of PE with triazole; type: cell-based; conditions: named triazole in combination with PE
[15] = system: Candida glabrata (ATCC 36583); test: Checkerboard assay (FICI) of PE with triazole; type: cell-based; conditions: named triazole in combination with PE
[16] = system: Candida albicans (sensitive=ATCC 90028); test: Checkerboard assay (FICI) of PE with triazole; type: cell-based; conditions: named triazole in combination with PE
[17] = system: Candida parapsilosis (ATCC 22019); test: Checkerboard assay (FICI) of PE with triazole; type: cell-based; conditions: named triazole in combination with PE
[18] = system: Cryptococcus neoformans (ATCC 24067); test: Checkerboard assay (FICI) of PE with triazole; type: cell-based; conditions: named triazole in combination with PE
[19] = 10 mM compound in YPD, 50 μg fluconazole disk, F45

CC(O)c1cccc(O)c1 (stereo not drawn) [A]
Fluconazole Zone Size (S. cerevisiae Strain F45): 11 mm

OCc1ccccc1 [B]
Fluconazole Zone Size (S. cerevisiae Strain F45): 11 mm

CC[C@H](C)C[C@H](C)CCCCCCCCC(=O)N[C@H]1C[C@@H](O)[C@@H](NCCN)NC(=O)[C@@H]2[C@@H](O)CCN2C(=O)[C@H]([C@H](O)CCN)NC(=O)[C@H]([C@H](O)[C@@H](O)c2ccc(O)cc2)NC(=O)[C@@H]2C[C@@H](O)CN2C(=O)[C@H]([C@@H](C)O)NC1=O [Caspofungin]
Degree of clearance (S. cerevisiae (F45); FIG. 8 Panel A, YPD + 10 mM PE 50 μg Caspofungin (so in the source), F45): 0 | Degree of clearance (S. cerevisiae (F45); FIG. 8 Panel E, YPD + 10 mM PE + 200 μg Caspofungin, F45): 0

Nc1ccc(CCO)cc1 [Compound C]
Fluconazole Zone Size (S. cerevisiae Strain F45): 13 mm

C[C@H](O)c1cccc(C#N)c1 [D]
Fluconazole Zone Size (S. cerevisiae Strain F45): 17 mm

OCCNCCc1ccccc1 [E]
Fluconazole Zone Size (S. cerevisiae Strain F45): 35 mm | Activity compared with PE (S. cerevisiae Strain F45; [19]): activity greater than PE | Growth of fungal cells on the plate with fluconazole (S. cerevisiae Strain F45; [19]): loss of growth

CCc1ccc(N)cc1 [F]
Fluconazole Zone Size (S. cerevisiae Strain F45): inhibition by compound but not fluconazole

OC(Cn1cncn1)(Cn1cncn1)c1ccc(F)cc1F [Fluconazole]
MIC [1]: >128 µg | MIC [2]: 32 µg | MIC [3]: 8 µg | MIC [4]: 0.25 µg | Sensitivity of the fungus to the antifungal in the presence of PE (the fungus): increased the sensitivity

Nc1[nH]c(=O)ncc1F [Flucytosine]
Sensitivity of the fungus to the antifungal in the presence of PE (the fungus): increased the sensitivity

CC(C)Cc1ccc(CCCO)cc1 [G]
Fluconazole Zone Size (S. cerevisiae Strain F45): inhibition by compound but not fluconazole

OC1(Cc2ccccc2)CCCC1 [H]
Fluconazole Zone Size (S. cerevisiae Strain F45): no growth | Growth of fungal cells on the plate with fluconazole (S. cerevisiae Strain F45; [19]): loss of growth

NCCCCOCCc1ccccc1 [I]
Fluconazole Zone Size (S. cerevisiae Strain F45): no growth | Growth of fungal cells on the plate with fluconazole (S. cerevisiae Strain F45; [19]): loss of growth

OCCc1cccc(Cl)c1 [J]
Fluconazole Zone Size (S. cerevisiae Strain F45): no growth | Growth of fungal cells on the plate with fluconazole (S. cerevisiae Strain F45; [19]): loss of growth

C[C@@H]1[C@H](O)[C@@H](C)/C=C/C=C/CC/C=C/C=C/C=C/C=C/C(O[C@H]2O[C@H](C)[C@@H](O)[C@H](N)[C@@H]2O)CC2O[C@](O)(CC(O)C(O)CCC(O)CC(O)CC(O)CC(=O)O[C@H]1C)CC(O)C2C(=O)O (stereo partly drawn) [Nystatin]
Degree of clearance (S. cerevisiae (F45); FIG. 9 Panel A, Strain F45, YPD + 50 μg nystatin): 2 | Degree of clearance (S. cerevisiae (F45); FIG. 9 Panel A, Strain F45, YPD + 10 mM PE + 50 μg nystatin): 2 | Degree of clearance (BY4741 lab strain; YPD + 50 μg nystatin): 2 | Degree of clearance (BY4741 lab strain; YPD + 10 mM PE + 50 μg nystatin): 2

OCCc1ccccc1 [PE, phenyl ethanol]
Degree of clearance (S. cerevisiae (F45); FIG. 6 Panel A, YPD + 10 mM PE, disk with chloroform vehicle only, F45): 0 | Effect of PE on caspofungin sensitivity (S. cerevisiae (F45); YPD plus 10 mM PE, 200 ng-50 μg caspofungin disk, F45, listed as PP): no effect | PE concentration at which biofilm formation was inhibited [5]: ≥ 10 mM | Fluconazole Zone Size (S. cerevisiae Strain F45): 27 mm

CO[C@H]1[C@@H](O)[C@H](O)[C@H](OC[C@@]23C[C@@H]4[C@H](C)CC[C@H]4[C@@]4(C=O)CC2C=C(C(C)C)[C@@]34C(=O)O)O[C@@H]1C [Sordarin]
Degree of clearance (S. cerevisiae (F45); FIG. 7 Panel A, YPD + 10 mM PE + 50 μg Sordarin, F45): 4 | Degree of clearance (S. cerevisiae (F45); FIG. 7 Panel A, YPD alone, 50 μg Sordarin disk, F45): 8 | Degree of clearance (S. cerevisiae (F45); FIG. 7 Panel B, YPD + 10 mM PE + 10 μg Sordarin, F45): 3 | Degree of clearance (S. cerevisiae (F45); FIG. 7 Panel B, YPD alone, 10 μg Sordarin disk, F45): 2 | Degree of clearance (S. cerevisiae (F45); FIG. 7 Panel C, YPD + 10 mM PE + 1 μg Sordarin, F45): 2 | Degree of clearance (S. cerevisiae (F45); FIG. 7 Panel C, YPD alone, 1 μg Sordarin disk, F45): 1 | Degree of clearance (S. cerevisiae (F45); FIG. 7 Panel D, YPD + 10 mM PE + 500 μg Sordarin, F45): 1 | Degree of clearance (S. cerevisiae (F45); FIG. 7 Panel D, YPD alone, Sordarin disk (500 ng per legend), F45): 0 | Degree of clearance ([6]; FIG. 13 Panel A, YPD + 1 μg sordarin): 1 | Degree of clearance ([6]; FIG. 13 Panel A, YPD + 1 μg sordarin + 10 mM PE): 2 | Degree of clearance ([6]; FIG. 13 Panel B, YPD + 10 μg sordarin): 2 | Degree of clearance ([6]; FIG. 13 Panel B, YPD + 10 μg sordarin + 10 mM PE): 3 | Degree of clearance ([6]; FIG. 13 Panel C, YPD + 50 μg sordarin): 3 | Degree of clearance ([6]; FIG. 13 Panel C, YPD + 50 μg sordarin + 10 mM PE): 4 | Sensitivity of the fungus to the antifungal in the presence of PE (the fungus): increased the sensitivity

C[C@@H](c1ncncc1F)[C@](O)(Cn1cncn1)c1ccc(F)cc1F [Voriconazole]
MIC [7]: >128 µg | MIC [1]: 0.25 µg | MIC [8]: 32 µg | MIC [2]: 0.25 µg | MIC [3]: 0.5 µg | MIC [9]: 0.03125 µg | MIC [10]: 0.03125 µg | MIC [4]: 0.0156 µg | FICI [11]: 0.3 | FICI [12]: 0.6 | FICI [13]: 0.6 | FICI [14]: 1.1 | FICI [15]: 1.2 | FICI [16]: 2.1 | FICI [17]: 1.6 | FICI [18]: 1.1 | Sensitivity of the fungus to the antifungal in the presence of PE (the fungus): increased the sensitivity
